From ChEMBL document CHEMBL3045063, “Synthesis and cytostatic evaluation of some 2-(5-substituted-2-oxoindolin-3-ylidene)-N-substituted hydrazine carbothioamide” (Med Chem Res, 2011) come the findings set out here.

pIC50: −log10 of the molar value. Bounds are passed on as bounds.

Assay type in all cases: functional, cell-based
One assay deals with CCRF-CEM. Briefly: Cytostatic activity against Homo sapiens (human) CEM cells after 72 hr.
Another assay has as its system MOLT-4. Briefly: Cytostatic activity against Homo sapiens (human) Molt4/C8 cells after 72 hr. Conditions: MOLT-4, 72 h.
A further assay relates to L1210. Briefly: Cytostatic activity against Mus musculus (mouse) L1210 cells after 48 hr. Conditions: L1210, 48 h.

Take `O=C1/C(=N\NC(=S)Nc2ccc(Cl)cc2)c2cc(Cl)ccc2N1Cc1ccc(F)cc1`: the pIC50 with CCRF-CEM was 4.30; in the assay on MOLT-4, 4.32; with L1210 it was 3.99.
As to `O=C1/C(=N\NC(=S)Nc2ccc(Cl)cc2)c2cc(Br)ccc2N1Cc1ccc(F)cc1`, the negative logarithm of the IC50 (pIC50) with CCRF-CEM is 4.21; with MOLT-4, 4.32; in the assay with L1210, 3.71.
As for `Cc1ccc(NC(=S)N/N=C2\C(=O)N(Cc3ccc(F)cc3)c3ccc(Br)cc32)cc1`, the pIC50 with CCRF-CEM is 3.88; in the assay with MOLT-4, 4.24; in the assay with L1210, 3.72.
As to `Cc1ccc(CN2C(=O)/C(=N\NC(=S)Nc3ccc(Cl)cc3)c3cc(Br)ccc32)cc1`, the negative-log IC50 (pIC50) with CCRF-CEM was 4.01; in the assay on MOLT-4, 4.13; in the assay on L1210, 3.71.
In the case of `Cc1ccc(NC(=S)N/N=C2\C(=O)N(Cc3ccc(Cl)cc3)c3ccc(Br)cc32)cc1`, the pIC50 in the assay with CCRF-CEM is not above 3.30; in the assay on MOLT-4, 3.54; in the assay with L1210, not above 3.30.
With `Cc1ccc(CN2C(=O)/C(=N\NC(=S)Nc3ccc(C)cc3)c3cc(Br)ccc32)cc1`, the negative logarithm of the IC50 (pIC50) in the assay with CCRF-CEM is not above 3.30; with MOLT-4 it was 3.41; in the assay with L1210, not above 3.30.
Regarding `O=C1/C(=N\NC(=S)Nc2ccc(Cl)cc2)c2cc(Br)ccc2N1Cc1ccc(Cl)cc1`, the negative-log IC50 (pIC50) in the assay with CCRF-CEM is 3.41; with MOLT-4, 3.55; in the assay on L1210, not above 3.30.
With `O=C1Nc2ccc(Cl)cc2/C1=N/NC(=S)Nc1ccc(Cl)cc1`, the pIC50 was 4.21 in the assay on CCRF-CEM, 4.19 in the assay on MOLT-4 and 3.97 in the assay with L1210.
Regarding `O=C1Nc2ccc(Br)cc2/C1=N/NC(=S)Nc1ccc(Cl)cc1`, the negative-log IC50 (pIC50) with CCRF-CEM is 4.21; in the assay with MOLT-4, 4.54; in the assay with L1210, 4.06.
As for `Cc1ccc(NC(=S)N/N=C2\C(=O)Nc3ccc(Br)cc32)cc1`, the pIC50 in the assay with CCRF-CEM was 5.17; in the assay with MOLT-4, 5.31; with L1210, 5.02.
Take `O=C1Nc2cc(Cl)c(F)cc2/C1=N/NC(=S)Nc1ccc(Cl)cc1`: the pIC50 is 4.32 in the assay on CCRF-CEM, 4.37 in the assay on MOLT-4 and 4.16 with L1210.
With `Cc1ccc(NC(=S)N/N=C2\C(=O)Nc3cc(Cl)c(F)cc32)cc1`, the pIC50 is 3.88 in the assay with CCRF-CEM, 3.95 in the assay with MOLT-4 and 3.78 in the assay on L1210.
For `O=C1/C(=N\NC(=S)Nc2ccc(Cl)cc2)c2cc(F)ccc2N1Cc1ccc(F)cc1`, in that order: 4.25, 4.33 and 3.81.
For `Cc1ccc(NC(=S)N/N=C2\C(=O)N(Cc3ccc(F)cc3)c3ccc(F)cc32)cc1`, in that order: 5.60, 5.82 and 5.21.
Turning to `Cc1ccc(CN2C(=O)/C(=N\NC(=S)Nc3ccc(Cl)cc3)c3cc(Cl)ccc32)cc1`, the values for the negative logarithm of the IC50 (pIC50) in the assay with CCRF-CEM, in the assay on MOLT-4 and with L1210 were 4.74, 5.24 and 5.01, respectively.
Take `O=C1/C(=N\NC(=S)Nc2ccc(Cl)cc2)c2cc(Cl)ccc2N1Cc1ccc(Cl)cc1`: the negative-log IC50 (pIC50) with CCRF-CEM is 4.17; in the assay on MOLT-4, 4.24; in the assay with L1210, 3.91.
For `O=C1Nc2ccc(F)cc2/C1=N/NC(=S)Nc1ccc(Cl)cc1`, the pIC50 was 4.60 with CCRF-CEM, 4.85 with MOLT-4 and 4.47 with L1210.
For `Cc1ccc(NC(=S)N/N=C2\C(=O)Nc3ccc(F)cc32)cc1`, in that order: 5.32, 5.52 and 5.09.
On to `N[C@@H](Cc1ccc(N(CCCl)CCCl)cc1)C(=O)O` [MELPHALAN], for which, in the assay with MOLT-4, the negative-log IC50 (pIC50) was 5.49.

For orientation: pIC50 means −log10 of the IC50, conventionally taken in molar units.
